Laboratory results: ChEMBL document CHEMBL5230154, “Chemical probe of AHL modulators on quorum sensing in Gram-Negative Bacteria and as antiproliferative agents: A review” (Eur J Med Chem, 2021)
Each block holds one compound with its values, some of them ahead of it.

Tests used:
[1] = target: T1, Transcriptional activator protein LasR (Pseudomonas aeruginosa (strain ATCC 15692 / PAO1 / 1C / PRS 101 / LMG12228), UniProt P25084); assay: Antagonist activity against LasR-mediated quorum sensing system in Pseudomonas aeruginosa PAO1 by spectrophotometric assay
T1 sequence (P25084 whole entry): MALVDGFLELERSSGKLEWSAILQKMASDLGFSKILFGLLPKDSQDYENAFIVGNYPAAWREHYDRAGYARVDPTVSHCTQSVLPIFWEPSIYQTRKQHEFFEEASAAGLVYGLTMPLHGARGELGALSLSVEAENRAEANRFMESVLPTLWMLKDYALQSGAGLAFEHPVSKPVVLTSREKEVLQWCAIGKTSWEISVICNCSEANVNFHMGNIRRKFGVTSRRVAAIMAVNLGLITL

[2] = Antagonist activity against quorum sensing system in Vibrio harveyi BB120 assessed as inhibition of […] incubated for 5 hrs by bioluminescence assay
[3] = Inhibition of quorum sensing system in Chromobacterium violaceum CV026 assessed as inhibition of violacein production incubated for 16 to 18 hrs by spectrophotometric assay
[4] = test system: Escherichia coli; assay: Inhibition of Escherichia coli DH5alpha LasR co-expressing LasR beta-galactosidase reporter assessed as inhibition of beta-galactosidase activity at 100 uM incubated for 2 hrs by spectrophotometric assay
[5] = Inhibition of Escherichia coli DH5alpha LasR co-expressing LasR beta-galactosidase reporter assessed as inhibition of beta-galactosidase activity incubated for 2 hrs by spectrophotometric assay
[6] = test system: Pseudomonas aeruginosa; assay: Inhibition of Pseudomonas aeruginosa MH602 harboring PlasB::gfp(ASV) reporter assessed as decrease in GFP expression at 250 uM incubated for 22 hrs by fluorescence microplate reader analysis
[7] = test system: Escherichia coli; assay: Antagonist activity against quorum sensing system in Pseudomonas aeruginosa PAO1 assessed as inhibition of 3OC6HSL- induced GFP expression at 50 uM by fluorescence analysis; conditions: filed as antagonist
[8] = test system: Pseudomonas aeruginosa; assay: Inhibition of quorum sensing system in Pseudomonas aeruginosa MH602 PlasB-gfp(ASV) assessed as inhibition of green fluorescent protein production at 62.5 uM for 20 hrs by fluorescence assay
[9] = test system: Pseudomonas aeruginosa; assay: Inhibition of quorum sensing system in Pseudomonas aeruginosa MH602 PlasB-gfp(ASV) assessed as inhibition of green fluorescent protein production at 250 uM for 20 hrs by fluorescence assay
[10] = test system: Pseudomonas aeruginosa; assay: Inhibition of quorum sensing system in Pseudomonas aeruginosa MH602 PlasB-gfp(ASV) assessed as inhibition of green fluorescent protein production at 125 uM for 20 hrs by fluorescence assay
[11] = test system: Pseudomonas aeruginosa; assay: Inhibition of quorum sensing system in Pseudomonas aeruginosa MH602 PlasB-gfp(ASV) assessed as inhibition of green fluorescent protein production at 62.5 to 250 uM for 20 hrs by fluorescence assay; conditions: dose 62.5-250 µM
[12] = Inhibition of quorum sensing system in Pseudomonas aeruginosa PAO1 assessed as decrease in pqsR expression at 15 uM incubated for 12 hrs by real-time fluorescent quantitative PCR analysis
[13] = Inhibition of quorum sensing system in Pseudomonas aeruginosa PAO1 assessed as decrease in lasI expression at 15 uM incubated for 12 hrs by real-time fluorescent quantitative PCR analysis
[14] = Inhibition of quorum sensing system in Pseudomonas aeruginosa PAO1 assessed as inhibition of elastase production at 15 uM incubated for 12 hrs by Congo red dye based spectrophotometric assay
[15] = Inhibition of quorum sensing system in Pseudomonas aeruginosa PAO1 assessed as inhibition of pyocyanin production at 15 uM incubated for 12 hrs by spectrophotometric assay
[16] = test system: Pseudomonas aeruginosa; assay: Inhibition of biofilm formation in Pseudomonas aeruginosa PAO1 incubated for 12 hrs by crystal violet staining based analysis; type: functional
[17] = Inhibition of quorum sensing system in Pseudomonas aeruginosa PAO1 assessed as inhibition of rhamnolipid production at 15 uM incubated for 12 hrs by spectrophotometric assay
[18] = test system: Pseudomonas aeruginosa; assay: Inhibition of quorum sensing system in Pseudomonas aeruginosa MH602 expressing PlasB::gfp assessed as inhibition of GFP fluorescence expression at 250 uM incubated for 15 hrs by fluorescence microplate reader analysis
[19] = Agonist activity against RhlR in Escherichia coli expressing JLD271/pJN105R2/pSC11-rhlI using CPRG as substrate by spectrophotometric assay

Compound: O=C(CNc1ccc(C(=O)/C=C/c2ccc(Br)cc2)cc1)N[C@H]1CCOC1=O
IC50 [1]: 46.8 µM

Compound: Cc1ccc2c(c1)C(=O)C(=O)NCc1cnnn1CC(=O)Nc1ccc(C)cc1C(=O)C(=O)NCc1cnnn1CC(=O)N2
inhibition [6]: 58.6%

Compound: CCOC(=O)/C=C1\CC(NCc2ccc(C)cc2)C(=O)N1Cc1ccc(C)cc1 (stereo not given)
inhibition [7]: 47.9%

Compound: CCOC(=O)CC(=O)c1ccc(C)cc1
IC50 [2]: 96 µM

Compound: CCCc1cn(CC(=O)Nc2nc3ccccc3[nH]2)nn1
inhibition [8]: 25%
inhibition [9]: 42%
inhibition [10]: 34%

Compound: O=C1Cn2nncc2CNC(=O)C(=O)c2cc(F)ccc2NC(=O)Cn2nncc2CNC(=O)C(=O)c2cc(F)ccc2N1
inhibition [6]: 46%

Compound: O=C(CNc1ccc(C(=O)/C=C/c2ccccc2)cc1)N[C@H]1CCOC1=O
IC50 [1]: 62.5 µM

Compound: O=C(NCc1ccccc1)c1ccc(N2CC(Cl)=C(Cl)C2=O)cc1
inhibition [18]: 30%

Compound: O=C(CCC1CC1)N[C@H]1CCOC1=O
EC50 [19]: 2.76 µM

Compound: CCCCc1cn(CC(=O)N[C@H]2CCOC2=O)nn1
inhibition [4]: 75%
IC50 [5]: 17.6 µM

Compound: O=C(Cn1cc(-c2cccc([N+](=O)[O-])c2)nn1)Nc1nc2ccccc2[nH]1
inhibition [11]: 28.2%

Compound: O=C(CNc1ccc(C(=O)/C=C/c2ccc(Br)cc2F)cc1)N[C@H]1CCOC1=O
IC50 [1]: 26.5 µM

Compound: O=C(CNc1ccc(C(=O)/C=C/c2ccccc2Br)cc1)N[C@H]1CCOC1=O
IC50 [1]: 37.6 µM

Compound: Cc1ccc2c(c1)C(=O)C(=O)N2C(=O)CCl
inhibition [6]: 57.4%

Compound: O=C(Nc1ccc(S(=O)(=O)N[C@H]2CCOC2=O)cc1)c1ccc(F)cc1
IC50 [3]: 14.7 µM

Compound: CCCCCc1cn(CC(=O)Nc2nc3ccccc3[nH]2)nn1
inhibition [8]: 25%
inhibition [9]: 42%
inhibition [10]: 34%

Compound: CCOC(=O)CC(=O)c1cccc2ccccc12
IC50 [2]: 76 µM

Compound: CCCCC(=O)Nc1ccc(S(=O)(=O)N[C@H]2CCOC2=O)cc1
IC50 [3]: 49.5 µM

Compound: O=C(CNc1ccc(C(=O)/C=C/c2ccccc2Cl)cc1)N[C@H]1CCOC1=O
IC50 [1]: 67.8 µM

Compound: CCCCCC(=O)N[C@H]1CCOC1=O
EC50 [19]: 10.8 µM

Compound: O=C(Nc1ccc(S(=O)(=O)N[C@H]2CCOC2=O)cc1)c1ccc(Cl)cc1
IC50 [3]: 15.9 µM

Compound: Cc1ccc(-n2cc(CCC(=O)N[C@H]3CCOC3=O)nn2)cc1
inhibition [4]: 72%
IC50 [5]: 10.9 µM

Compound: C=CCN1CC(Cl)=C(Cl)C1=O
inhibition [18]: 76.4%

Compound: O=C(Cn1cc(-c2ccc(F)cc2)nn1)Nc1nc2ccccc2[nH]1
inhibition [11]: 49%

Compound: CCOC(=O)CC(=O)c1cccc(C)c1
IC50 [2]: 56 µM

Compound: O=C(Cn1cc(C2CCCCC2)nn1)N[C@H]1CCOC1=O
inhibition [4]: 72%
IC50 [5]: 12.4 µM

Compound: CCOC(=O)CC(=O)c1cccc([N+](=O)[O-])c1
IC50 [2]: 71 µM

Compound: CCC(C)CC(=O)N[C@H]1CCOC1=O (stereo not given in full)
EC50 [19]: 7.77 µM

Compound: O=C(Cn1cc(-c2ccc(Br)cc2)nn1)Nc1nc2ccccc2[nH]1
inhibition [11]: 45.7%

Compound: C/C=C/CCC(=O)N[C@H]1CCOC1=O
EC50 [19]: 6.93 µM

Compound: O=C(Nc1ccc(S(=O)(=O)N[C@H]2CCOC2=O)cc1)c1cccc(F)c1
IC50 [3]: 7.79 µM

Compound: CCc1cn(CC(=O)Nc2nc3ccccc3[nH]2)nn1
inhibition [8]: 25%
inhibition [9]: 42%
inhibition [10]: 34%

Compound: CC(C)CCC(=O)N[C@H]1CCOC1=O
EC50 [19]: 4.89 µM

Compound: O=C(Cn1cc(-c2ccc(C(F)(F)F)cc2)nn1)Nc1nc2ccccc2[nH]1
inhibition [11]: 57.5%

Compound: CCOC(=O)CC(=O)c1ccc([N+](=O)[O-])cc1
IC50 [2]: 53 µM

Compound: Nc1cccc(-n2cc(CCC(=O)N[C@H]3CCOC3=O)nn2)c1
IC50 [5]: 4.03 µM

Compound: CCOC(=O)CC(=O)c1ccccc1
IC50 [2]: 76 µM

Compound: CCCCN1CC(Cl)=C(Cl)C1=O
inhibition [18]: 71.4%

Compound: CCOC(=O)/C=C1\CC(NCc2ccccc2)C(=O)N1Cc1ccccc1 (stereo not given)
inhibition [7]: 57.9%

Second part, led by results:

IC50 [2]: 39 µM
Compound: CCOC(=O)CC(=O)c1ccc(I)cc1

IC50 [3]: 8.56 µM
Compound: O=C(Nc1ccc(S(=O)(=O)N[C@H]2CCOC2=O)cc1)c1cccc(Cl)c1

inhibition [4]: 62%
IC50 [5]: 2.64 µM
Compound: O=C(N[C@H]1CCOC1=O)c1ccc(-n2cc(CSc3ccccc3)nn2)cc1

inhibition [11]: 32%
Compound: Cc1ccc(-c2cn(CC(=O)Nc3nc4ccccc4[nH]3)nn2)cc1

IC50 [2]: 23 µM
Compound: CCOC(=O)CC(=O)c1ccc(F)cc1

IC50 [3]: 29 µM
Compound: CCCCCC(=O)Nc1ccc(S(=O)(=O)N[C@H]2CCOC2=O)cc1

inhibition [12]: 57.5%
inhibition [13]: 39.2%
inhibition [14]: 18.4%
inhibition [15]: 30.3%
inhibition [17]: 16.7%
Compound: COc1ccccc1NC(=O)NC(=O)CSC(=S)N[C@H]1CCOC1=O
inhibition (INH) [16]: 40.3%

inhibition [18]: 30%
Compound: CCCCCCNC(=O)c1ccc(N2CC(Cl)=C(Cl)C2=O)cc1

inhibition [8]: 25%
inhibition [9]: 42%
inhibition [10]: 34%
Compound: CCCCCCCc1cn(CC(=O)Nc2nc3ccccc3[nH]2)nn1

IC50 [3]: 4.91 µM
Compound: O=C(Nc1ccc(S(=O)(=O)N[C@H]2CCOC2=O)cc1)c1ccccc1C(F)(F)F

inhibition [11]: 36.1%
Compound: Cc1cc2nc(NC(=O)Cn3cc(-c4ccc(C(F)(F)F)cc4)nn3)[nH]c2cc1C

inhibition [4]: 55%
IC50 [5]: 3.2 µM
Compound: CCCCCc1cn(CC(=O)N[C@H]2CCOC2=O)nn1

IC50 [3]: 17.2 µM
Compound: O=C(Nc1ccc(S(=O)(=O)N[C@H]2CCOC2=O)cc1)c1ccccc1

inhibition [7]: 53.5%
Compound: CCOC(=O)/C=C1\CC(NCc2cccs2)C(=O)N1Cc1cccs1 (stereo not given)

inhibition [4]: 89.6%
IC50 [5]: 15.9 µM
Compound: O=C(Cn1cc(-c2ccccc2)nn1)N[C@H]1CCOC1=O

inhibition [11]: 34%
Compound: O=C(Cn1cc(-c2ccc(O)cc2)nn1)Nc1nc2ccccc2[nH]1

inhibition [4]: 71%
IC50 [5]: 13.7 µM
Compound: O=C(Cn1cc(-c2cc(F)cc(F)c2)nn1)N[C@H]1CCOC1=O

IC50 [1]: 46.8 µM
Compound: O=C(CNc1ccc(C(=O)/C=C/c2ccc(Cl)c(Cl)c2)cc1)N[C@H]1CCOC1=O

IC50 [1]: 46.8 µM
Compound: O=C(CNc1ccc(C(=O)/C=C/c2ccc(F)cc2)cc1)N[C@H]1CCOC1=O

IC50 [3]: 1.64 µM
Compound: O=C(Nc1ccc(S(=O)(=O)N[C@H]2CCOC2=O)cc1)c1ccccc1F

inhibition [4]: 52%
Compound: O=C(Cn1cc(C2CC2)nn1)N[C@H]1CCOC1=O

inhibition [4]: 70%
IC50 [5]: 16.3 µM
Compound: O=C(Cn1cc(C2CCCC2)nn1)N[C@H]1CCOC1=O

inhibition [13]: 50.5%
inhibition [15]: 14.2%
inhibition [17]: 20.5%
Compound: O=C(CSc1nc2ccccc2s1)N[C@H]1CCOC1=O
inhibition (INH) [16]: 28.6%

IC50 [1]: 46.8 µM
Compound: O=C(CNc1ccc(C(=O)/C=C/c2ccc(Cl)cc2)cc1)N[C@H]1CCOC1=O

IC50 [2]: 36 µM
Compound: CCOC(=O)CC(=O)c1ccc(OC)cc1

IC50 [2]: 53 µM
Compound: CCOC(=O)CC(=O)c1ccc(Cl)cc1

IC50 [2]: 81 µM
Compound: CCOC(=O)CC(=O)c1ccc(Br)cc1

inhibition [8]: 52.9%
inhibition [9]: 65%
inhibition [10]: 60.5%
Compound: O=C(Cn1cc(-c2ccc(Cl)cc2)nn1)Nc1nc2ccccc2[nH]1

inhibition [4]: 75%
IC50 [5]: 16.5 µM
Compound: COc1ccc(-n2cc(CCC(=O)N[C@H]3CCOC3=O)nn2)cc1

inhibition [18]: 68%
Compound: CCCCCCN1CC(Cl)=C(Cl)C1=O

inhibition [7]: 56.9%
Compound: CCOC(=O)/C=C1\CC(NCc2ccco2)C(=O)N1Cc1ccco1 (stereo not given)

inhibition [9]: 20%
inhibition [10]: 5.16%
Compound: COc1ccc(-c2cn(CC(=O)Nc3nc4ccccc4[nH]3)nn2)cc1

inhibition [4]: 14%
Compound: O=C(Cn1cc(CC2CCCCC2)nn1)N[C@H]1CCOC1=O

IC50 [2]: 41 µM
Compound: CCOC(=O)CC(=O)c1cccc(OC)c1

inhibition [11]: 63.7%
Compound: O=C(Cn1cc(-c2ccc([N+](=O)[O-])cc2)nn1)Nc1nc2ccccc2[nH]1

IC50 [1]: 46.8 µM
Compound: O=C(CNc1ccc(C(=O)/C=C/c2cc(Cl)cc(Cl)c2)cc1)N[C@H]1CCOC1=O

IC50 [1]: 56.5 µM
Compound: COc1cccc(/C=C/C(=O)c2ccc(NCC(=O)N[C@H]3CCOC3=O)cc2)c1

IC50 [3]: 1.66 µM
Compound: O=C(Nc1ccc(S(=O)(=O)N[C@H]2CCOC2=O)cc1)c1ccccc1Cl

inhibition [13]: 32.9%
inhibition [15]: 15.1%
inhibition [17]: 22.2%
Compound: O=C(CCSc1nc2ccccc2s1)N[C@H]1CCOC1=O
inhibition (INH) [16]: 38%

inhibition [18]: 30%
Compound: CCCCNC(=O)c1ccc(N2CC(Cl)=C(Cl)C2=O)cc1
